Laboratory results from patent US12285455B2, “Controlled-release and stratified cyclodextrin inclusion complex vehicles” (CZAP RESEARCH AND DEVELOPMENT, LLC., priority 2016, dated 2025).

Test system: myelofibrosis
Experiment: treatment of myelofibrosis, case history
Format: in vivo, human
Details: following initiation of treatment; approximately every 10 days before treatment
Experimental: This example illustrates the treatment of symptoms associated with myelofibrosis. A patient suffering from myelofibrosis was treated with a quercetin CD formulation. The formulation was prepared from a powder of quercetin (Glanbia Nutritionals) formed as an inclusion complex with gamma cyclodextrin, dried and mixed with amylase powder. At the initiation of quercetin CD treatment, the patient was in need of blood transfusions approximately every 10 days. Following initiation of the quercetin CD treatment, the patient was able to go 20 days between transfusions.

`O=c1c(O)c(-c2ccc(O)c(O)c2)oc2cc(O)cc(O)c12` [quercetin] was tested, and the “interval between blood transfusions” value was “did not get this result”.
